Experimental data: the CheMixHub viscosity set
± gives the uncertainty stated by the source.

Assay: xn = mol fraction of the nth substance listed

O=[N+]([O-])[O-].[Na+] + O
viscosity [mPa·s]
Conditions	293.15 K	298.15 K	303.15 K	308.15 K	313.15 K	318.15 K
101 kPa, x1 = 0.0371	–	–	–	–	0.78 ± 0.02	–
101 kPa, x1 = 0.0564	–	1.19 ± 0.03	–	–	0.89 ± 0.02	–
101 kPa, x1 = 0.0768	–	1.3 ± 0.1	–	–	1.02 ± 0.02	–
101 kPa, x1 = 0.0978	–	1.63 ± 0.04	–	–	1.2 ± 0.1	–
101 kPa, x1 = 0.12	–	1.92 ± 0.04	–	–	1.41 ± 0.03	–
101.1 kPa, x1 = 0.0001893	1.003 ± 0.021	0.892 ± 0.019	0.799 ± 0.017	0.721 ± 0.015	0.654 ± 0.014	0.598 ± 0.013
101.1 kPa, x1 = 0.0007456	1.004 ± 0.021	0.893 ± 0.019	0.8 ± 0.017	0.722 ± 0.015	0.655 ± 0.014	0.6 ± 0.013
101.1 kPa, x1 = 0.0018	1.007 ± 0.022	0.895 ± 0.019	0.803 ± 0.017	0.725 ± 0.015	0.658 ± 0.014	0.602 ± 0.013
101.1 kPa, x1 = 0.007199	1.02 ± 0.022	0.909 ± 0.019	0.817 ± 0.017	0.738 ± 0.016	0.662 ± 0.014	0.608 ± 0.013
101.1 kPa, x1 = 0.01603	1.032 ± 0.022	0.923 ± 0.02	0.83 ± 0.018	0.75 ± 0.016	0.676 ± 0.014	0.618 ± 0.013
101.1 kPa, x1 = 0.0211	1.052 ± 0.023	0.934 ± 0.02	0.836 ± 0.018	0.754 ± 0.016	0.682 ± 0.015	0.623 ± 0.013
101.3 kPa, x1 = 0.0009	1.005 ± 0.022	0.8932 ± 0.019	0.8005 ± 0.017	0.7222 ± 0.015	–	0.5989 ± 0.013
101.3 kPa, x1 = 0.0018	1.007 ± 0.022	0.8955 ± 0.019	0.8028 ± 0.017	0.7247 ± 0.015	–	0.6018 ± 0.013
101.3 kPa, x1 = 0.00893	1.025 ± 0.022	0.915 ± 0.019	0.8225 ± 0.017	0.7446 ± 0.016	–	0.6207 ± 0.013
101.3 kPa, x1 = 0.0177	1.058 ± 0.023	0.9465 ± 0.02	0.853 ± 0.018	0.7732 ± 0.016	–	0.6476 ± 0.014
101.3 kPa, x1 = 0.03478	1.15 ± 0.025	1.032 ± 0.022	0.9323 ± 0.02	0.8482 ± 0.018	–	0.7131 ± 0.015
101.3 kPa, x1 = 0.05127	1.275 ± 0.027	1.144 ± 0.024	1.034 ± 0.022	0.9397 ± 0.02	–	0.7913 ± 0.017
101.3 kPa, x1 = 0.06722	1.418 ± 0.03	1.271 ± 0.027	1.148 ± 0.024	1.043 ± 0.022	–	0.8782 ± 0.019
101.3 kPa, x1 = 0.09755	1.796 ± 0.038	1.604 ± 0.034	1.444 ± 0.031	1.309 ± 0.028	–	1.097 ± 0.023
101.3 kPa, x1 = 0.126	2.231 ± 0.048	1.983 ± 0.042	1.778 ± 0.038	1.606 ± 0.034	–	1.338 ± 0.028
101.33 kPa, x1 = 0.000905	–	–	–	0.7324 ± 0.014	0.6609 ± 0.013	–
101.33 kPa, x1 = 0.002718	–	–	–	0.7422 ± 0.014	0.6695 ± 0.013	–
101.33 kPa, x1 = 0.00453	–	–	–	0.7525 ± 0.014	0.6763 ± 0.013	–
101.33 kPa, x1 = 0.006344	–	–	–	0.7606 ± 0.014	0.6855 ± 0.013	–
101.33 kPa, x1 = 0.008159	–	–	–	0.7705 ± 0.015	0.6992 ± 0.013	–
101.33 kPa, x2 = 0.84	3.04 ± 0.13	–	–	–	–	–
101.33 kPa, x2 = 0.86	2.507 ± 0.11	–	–	–	–	–
101.33 kPa, x2 = 0.88	2.15 ± 0.088	–	–	–	–	–
101.33 kPa, x2 = 0.89	2.088 ± 0.091	–	–	–	–	–
101.33 kPa, x2 = 0.91	1.752 ± 0.072	–	–	–	–	–
101.33 kPa, x2 = 0.92	1.502 ± 0.062	–	–	–	–	–
101.33 kPa, x2 = 0.94	1.384 ± 0.056	–	–	–	–	–
